{"source": "patent US10654797B2", "about": "“Solid forms of an adamantyl compound, compositions and uses thereof” (NORTH & SOUTH BROTHER PHARMACY INVESTMENT COMPANY LIMITED, priority 2016, dated 2020)", "key": {"[1]": {"assay": "Stability of thin layers under high temperature, high humidity, light and ambient conditions, impurity by HPLC", "format": "physicochemical", "details": "day 10, HPLC"}, "[2]": {"assay": "Hygroscopicity: weight gain at controlled relative humidity", "format": "physicochemical", "details": "25° C.±1° C., 24 hours"}, "[3]": {"assay": "Stability of thin layers under high temperature, high humidity, light and ambient conditions, impurity by HPLC", "format": "physicochemical", "description": "Thin layers (≤5 mm) of crystalline Form I were placed under high temperature (60±2° C.), high humidity (92.5%±2% humidity), light (visible light 4500 lx±500 lx) and ambient temperature (25±2° C., 65%±5% humidity) for 15 days, and samples were analyzed by HPLC on day 5, 9 and 15."}, "[4]": {"assay": "Crystal form stability: suspension in water stirred 24 hours or storage, solids analyzed by X-ray diffraction", "format": "physicochemical", "details": "for Crystalline form after stirring in water: suspension in water, 24 hours, X-ray diffraction", "description": "Samples of a mixture of crystalline Form I and Form II of Compound (I) were added to water at room temperature or 60° C. to form suspensions, which were stirred for 24 hours, and solids were analyzed by X-ray diffraction."}, "[5]": {"assay": "In vivo pharmacokinetics: memantine in plasma after intramuscular administration to rats", "details": "memantine measured in rat plasma, memantine solution 17.5 mg/kg", "description": "Compound (I) was tested in an experiment to determine its in vivo conversion to the active compound memantine.\nAnalytical LC/MS/MS systems: Agilent 1200 Series vacuum degasser, dual-injection pump, orifice autosampler, column incubator, charged spray ionization (ESI) source, and Agilent G6430 three-stage quadrupole mass spectrometer. The quantitative analysis is performed in the MRM mode, with the following MRM conversion parameters:\nWaters XBridge TMC18, 2.1×30 mm, 3.5 μM column; 20 μL of sample was injected in each run. Conditions: The mobile phase included […]+2 mM ammonium formate+0.1% formic acid (A) and methanol+2 mM ammonium formate+0.1% formic acid (B). The flow rate was 0.35 mL/min. The mobile phase gradient is as follows: […]\nAdditional instruments and reagents included Agilent 6330 Series LC/MS/MS spectrometer equipped with a G1312A Binary Injection Pump, G1367A autosampler and MS/MS Detector for analysis; LC/MS/MS spectrometer with ESI source. Suitable cationic model treatments and MRM conversion were used for each analyte using standard solution for optimal analysis. Waters XBridge TMC18 was used with specifications of 2.1×30 mm, 3.5 μM. The reaction was carried out with […] ammonium formate+0.1% formic acid (A) and methanol+2 mM ammonium formate+0.1% formic acid (B). […]"}}}
{"smiles": "CC12CC3CC(C)(C1)CC(NC(=O)OCOC(=O)c1ccccc1)(C3)C2", "note": "[crystalline Form I, ((((1r,3R,5S,7r)-3,5-dimethyladamantan-1-yl)carbamoyl)oxy)methyl benzoate]", "values": [{"measurement": "percentage of impurity", "setting": "[1]; 60 ± 2° C.", "result": 0.02, "unit": "%"}, {"measurement": "percentage of impurity", "setting": "[1]; 92.5% ± 2% humidity", "result": 0.06, "unit": "%"}, {"measurement": "percentage of impurity", "setting": "[1]; visible light 4500 lx±500 lx", "result": 0.03, "unit": "%"}, {"measurement": "hygroscopicity", "setting": "[2]; 80% and 92.5% RH", "result": "lack of hygroscopicity"}, {"measurement": "weight gain", "setting": "[2]; saturated KNO3 aqueous solution (92.5%±2% RH)", "result": 0.06, "unit": "%"}, {"measurement": "weight gain", "setting": "[2]; saturated NH4Cl aqueous solution (80%±2% RH)", "result": 0.03, "unit": "%"}, {"measurement": "percentage of impurity", "setting": "[3]; 60 ± 2° C., day 0, HPLC", "result": 0.04, "unit": "%"}, {"measurement": "percentage of impurity", "setting": "[3]; 60 ± 2° C., day 5, HPLC", "result": 0.04, "unit": "%"}, {"measurement": "percentage of impurity", "setting": "[3]; 60 ± 2° C., day 15, HPLC", "result": 0.02, "unit": "%"}, {"measurement": "percentage of impurity", "setting": "[3]; 92.5% ± 2% humidity, day 0, HPLC", "result": 0.04, "unit": "%"}, {"measurement": "percentage of impurity", "setting": "[3]; 92.5% ± 2% humidity, day 5, HPLC", "result": 0.06, "unit": "%"}, {"measurement": "percentage of impurity", "setting": "[3]; 92.5% ± 2% humidity, day 15, HPLC", "result": 0.02, "unit": "%"}, {"measurement": "percentage of impurity", "setting": "[3]; ambient temperature (25±2° C., 65%±5% humidity), day 0, HPLC", "result": 0.04, "unit": "%"}, {"measurement": "percentage of impurity", "setting": "[3]; ambient temperature (25±2° C., 65%±5% humidity), day 5, HPLC", "result": 0.04, "unit": "%"}, {"measurement": "percentage of impurity", "setting": "[3]; ambient temperature (25±2° C., 65%±5% humidity), day 10, HPLC", "result": 0.04, "unit": "%"}, {"measurement": "percentage of impurity", "setting": "[3]; ambient temperature (25±2° C., 65%±5% humidity), day 15, HPLC", "result": 0.01, "unit": "%"}, {"measurement": "chemical change under stress conditions", "setting": "[3]; high temperature, high humidity, light and ambient temperature for 15 days", "result": "did not exhibit significant chemical change"}, {"measurement": "percentage of impurity", "setting": "[3]; visible light 4500 lx±500 lx, day 0, HPLC", "result": 0.04, "unit": "%"}, {"measurement": "percentage of impurity", "setting": "[3]; visible light 4500 lx±500 lx, day 5, HPLC", "result": 0.03, "unit": "%"}, {"measurement": "percentage of impurity", "setting": "[3]; visible light 4500 lx±500 lx, day 15, HPLC", "result": 0.02, "unit": "%"}]}
{"smiles": "CC12CC3CC(C)(C1)CC(NC(=O)OCOC(=O)c1ccccc1)(C3)C2", "note": "[Crystalline Form II, ((((1r,3R,5S,7r)-3,5-dimethyladamantan-1-yl)carbamoyl)oxy)methyl benzoate]", "values": [{"measurement": "Crystalline form upon long term storage", "setting": "[4]; long term storage at room temperature", "result": "converted to Form I"}]}
{"smiles": "CC12CC3CC(C)(C1)CC(NC(=O)OCOC(=O)c1ccccc1)(C3)C2", "note": "(mixture of isomers) [((((1r,3R,5S,7r)-3,5-dimethyladamantan-1-yl)carbamoyl)oxy)methyl benzoate]", "values": [{"measurement": "Crystalline form after stirring in water", "setting": "[4]; 60° C.", "result": "completely converted to crystalline Form I"}, {"measurement": "Crystalline form after stirring in water", "setting": "[4]; room temperature", "result": "remained as a mixture of crystalline Form I and Form II"}]}
{"smiles": "CC12CC3CC(C)(C1)CC(N)(C3)C2", "note": "[memantine]", "values": [{"measurement": "T1/2", "setting": "[5]", "result": 4, "unit": "h"}]}
